Assay results taken from patent US8741645B2, “Test kit comprising a culture instrument with a cell pattern and a gel suitable to embed cell pattern” (Dai Nippon Printing Co., Ltd., priority 2006, dated 2014).

Key:
Assay type in all cases: cell-based
[1] = tested on: bovine aortic vascular endothelial cells; test: Lumen formation test (cell shrinkage), cell pattern sandwiched between substrate and GFR Matrigel (configuration of FIG. 3); set-up: key: ∘: Large inhibition effect; Δ: Small inhibition effect; x: No inhibition effect; details: inhibitor previously added; shrinkage of multiple cells observed, GFR Matrigel
Procedure: (§1) An autoclave-sterilized substrate was arranged within a culture container and then an appropriate amount of MEM medium containing 5% fetal calf serum was added. 2.0×10^5 bovine aortic vascular endothelial cells were seeded per substrate. After 72 hours of culture, cells adhered only to oxidatively degraded regions and reached confluency on the lines each having a width of 60 μm.
200 μl of ice-cooled Growth Factor Reduced (GFR) Matrigel (Becton, Dickinson and Company) was spread over a culture container and then allowed to stand at room temperature for approximately 1 minute. The substrate was gently placed with its cell adhesion face down onto the matrigel. The resultant was allowed to stand for approximately 5 minutes while maintaining this condition. After complete gelling, MEM medium containing 5% fetal calf serum was added and then the substrate was immersed in the medium. The culture container was transferred into an incubator (37° C., 5% CO2) and then cells were cultured while being sandwiched between a substrate and matrigel. […] This is a phenomenon that is characteristically observed when vascular endothelial cells undergo lumen formation in response to differentiation signals coming from the extracellular matrix. When a vascularization inhibitor had been previously added to the three-dimensional culture system, shrinkage of multiple cells was inhibited or not inhibited according to the relevant pharmacologic action (Table 1). This means that the effect of a drug on lumen formation can be efficiently tested via observation of cell shrinkage that is observed at the initial stage of differentiation. This test method could also be performed for normal human umbilical vein endothelial cells in completely the same manner.

[2] = tested on: Normal human (adult) dermal fibroblasts; test: Cell migration and proliferation of linear cell pattern embedded in collagen gel (configuration of FIG. 3); details: 10 μM in culture solution; observed at 3, 6, 9 and 21 hours; compared with culture solution and DMSO systems
Procedure: The above dish was sterilized with 70% ethanol. Normal human (adult) dermal fibroblasts (KF-4109, Cascade Biologics) dispersed in a culture solution (basal medium M-106-500S, additive agent KE-6350, and Cascade Biologics/KURABO) was seeded at 4×10^5 cells per dish. Cells were cultured using an incubator under conditions of 37° C. and 5% CO2 for 18 hours. A linear pattern formed by cells that had adhered was obtained.
Cell aggregates were embedded into gel that had been prepared using the collagen gel kit used in Example 5 and then three-dimensional culture was performed with the configuration of FIG. 3. After 30 minutes of gelling at 37° C., three types of culture were performed using (1) a system containing the above culture solution, (2) a system containing a culture solution prepared by adding 10 μM inhibitor PP2 to the above culture solution, and (3) a system containing a culture solution containing DMSO with the same concentration as that of DMSO (used as a solvent for preparing 1 mM stock solution of PP2) contained in the above-prepared culture solution containing PP2.

[3] = tested on: bovine aortic vascular endothelial cells; test: Vascularization test, three-dimensional culture of cell pattern in collagen gel (configuration of FIG. 2); details: 50 μM added to three-dimensional culture system, medium with proliferation factors
Procedure: as §1, with “48” for “72”, “culture within an incubator (37° C., 5% CO2),” for “culture,”
A collagen solution was prepared on ice using a collagen gel culture kit (Cellmatrix I-A, Nitta gelatin). 500 μl of the solution was spread flatly over a 28 mm×33 mm well, followed by 10 minutes of gelling at 37° C. 2 ml of MEM medium containing 5% fetal calf serum was added to the gel. The substrate was caused to sink while upside-down in the medium, so that cells that had adhered to the substrate were caused to come into contact with collagen gel at the bottom. After 4 hours of culture within an incubator, the substrate was carefully removed using a pair of tweezers. […] The medium was removed by suction, 250 μl of the collagen solution was applied in layers to the cells, and then gelling was performed at 37° C. for 10 minutes. […]

Row | SMILES | Inhibition effect (inhibiting lumen formation) [1] | cell migration [2] | cell proliferation [2] | vascularization [3]
1 | N=C(N)NC(=O)c1nc(Cl)c(N)nc1N [Amiloride] | x | – | – | –
2 | O=c1cc(N2CCOCC2)oc2c(-c3ccccc3)cccc12 [LY294002] | Δ | – | – | –
3 | CN(C)c1ccc(O)c2c1C[C@H]1C[C@H]3[C@H](N(C)C)C(O)=C(C(N)=O)C(=O)[C@@]3(O)C(O)=C1C2=O [Minocycline] | x | – | – | –
4 | CC(C)(C)n1nc(-c2ccc(Cl)cc2)c2c(N)ncnc21 [PP2] | ∘ | significantly suppressed | significantly suppressed | –
5 | Cc1ccc(C(=O)Nc2ccc(S(=O)(=O)O)c3cc(S(=O)(=O)O)cc(S(=O)(=O)O)c23)cc1NC(=O)c1cccc(NC(=O)Nc2cccc(C(=O)Nc3cc(C(=O)Nc4ccc(S(=O)(=O)O)c5cc(S(=O)(=O)O)cc(S(=O)(=O)O)c45)ccc3C)c2)c1 [Suramin] | x | – | – | completely inhibited
6 | C[C@@H](N)[C@H]1CC[C@H](C(=O)Nc2ccncc2)CC1 [Y27632] | x | – | – | –
